According to patent EP3210469A1, “USE OF SUBSTITUTED THIO-1,2,4-TRIAZOLES FOR INCREASING STRESS TOLERANCE IN PLANTS” (Bayer CropScience AG, priority 2016, dated 2017):

Legend:
[1] = target: T1, Phosphatase ABI1 über den Co-Regulator RCAR11/PYR1 (Arabidopsis thaliana, UniProt O49686+P49597); assay: In vitro ABI1 phosphatase inhibition assay via co-regulator RCAR11/PYR1 (MUP dephosphorylation, fluorescence); assay type: biochemical; details: Konzentration 5mM of the substance in DMSO and water; 20 min at 35 °C; MUP substrate, emission 460 nm
T1 sequence (O49686 1-191): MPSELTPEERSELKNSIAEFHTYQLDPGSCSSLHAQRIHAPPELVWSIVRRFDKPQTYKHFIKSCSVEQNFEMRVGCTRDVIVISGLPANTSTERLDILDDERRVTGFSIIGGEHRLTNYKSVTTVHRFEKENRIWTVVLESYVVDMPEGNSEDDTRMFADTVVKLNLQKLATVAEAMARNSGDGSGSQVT
T1 sequence (P49597 1-434): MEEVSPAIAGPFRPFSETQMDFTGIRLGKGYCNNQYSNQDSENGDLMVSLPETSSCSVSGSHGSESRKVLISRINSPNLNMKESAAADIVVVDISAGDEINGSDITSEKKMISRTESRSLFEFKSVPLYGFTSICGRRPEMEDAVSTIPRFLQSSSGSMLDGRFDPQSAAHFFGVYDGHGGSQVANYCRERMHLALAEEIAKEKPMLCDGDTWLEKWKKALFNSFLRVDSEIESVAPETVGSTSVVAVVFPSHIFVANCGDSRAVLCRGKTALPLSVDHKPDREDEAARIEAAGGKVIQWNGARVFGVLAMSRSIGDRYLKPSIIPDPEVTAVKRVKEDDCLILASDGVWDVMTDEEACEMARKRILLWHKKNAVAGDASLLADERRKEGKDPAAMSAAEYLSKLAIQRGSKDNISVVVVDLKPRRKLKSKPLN
Source text: Effekte des Phytohormons Abscisinsäure (ABA) auf das Verhalten von Pflanzen unter abiotischem Stress und der Wirkmechanismus von ABA sind in der Literatur beschrieben (vgl. Abrams et al, WO97/23441, Park et al. Science, 2009, 324, 1068; Grill et al. Science, 2009, 324, 1064; Tanokura et al. Biophysics, 2011, 7, 123; Schroeder et al. Plant J. 2010, 61, 290). Daher kann man mit Hilfe eines geeigneten in vitro-Testsystems eine Korrelation zwischen der Wirkung von ABA und der Stressantwort einer Pflanze unter abiotischem Stress ableiten. Unter Wassermangel (Trockenstress) bilden Pflanzen das Phytohormon Abscisinsäure (ABA). Dieses bindet mit einem Co-Regulator (Regulatory Component of ABA-Receptor = RCAR nach Grill et al. Science, 2009, 324, 1064 oder PYR/PYL nach Cutler et al. Science, 2009, 324, 1068) an eine Phosphatase (z.B. ABI1, eine Typ 2C Proteinphosphatase, auch als PP2C abgekürzt) und hemmt diese in ihrer Aktivität. In der Folge wird eine "downstream" Kinase (z.B. SnRK2) nicht mehr dephosphoryliert. Diese somit aktive Kinase schaltet über Phosphorylierung von Transkriptionsfaktoren (z.B. AREB/ABF, vgl. Yoshida et al Plant J. 2010, 61, 672) ein genetisches Schutzprogramm zur Erhöhung der Trockenstresstoleranz an.
In dem im Folgenden beschriebenen Assay wird die Hemmung der Phosphatase ABI1 über den Co-Regulator RCAR11/PYR1 aus Arabidopsis thaliana genutzt. […]

Zea mays = assay: Drought stress greenhouse test, in vivo Part A (spray application, visual rating vs stressed control plants); design: key: 0: kein Effekt; +: leicht positiver Effekt; ++: deutlich positiver Effekt; +++: stark positiver Effekt; details: Trockenstress, 600 l/ha water, mean rating of 3 pots
Source text: (§1) Samen von mono- bzw. dikotylen Kulturpflanzen wurden in Plastiktöpfen in sandigem Lehmboden ausgesät, mit Erde oder Sand abgedeckt und im Gewächshaus unter guten Wachstumsbedingungen angezogen. Die Behandlung der Versuchspflanzen erfolgte im frühen Laubblattstadium (BBCH10 - BBCH13). Zur Gewährleistung einer uniformen Wasserversorgung vor Stressbeginn wurden die bepflanzten Töpfe vor Substanzapplikation durch Anstaubewässerung mit Wasser versorgt.
(§2) Die in Form von benetzbaren Pulvern (WP) formulierten erfindungsgemässen Verbindungen wurden als wässrige Suspension mit einer Wasseraufwandmenge von umgerechnet 600 I/ha unter Zusatz von 0,2% Netzmittel (z.B. Agrotin) auf die grünen Pflanzenteile gesprüht. Unmittelbar nach Substanzapplikation erfolgte die Stressbehandlung der Pflanzen.
(§3) Der Trockenstress wurde durch langsames Abtrocknen unter folgenden Bedingungen induziert: • "Tag": 14 Stunden beleuchtet bei ~ 26-30°C • "Nacht": 10 Stunden ohne Beleuchtung bei ~ 18-20°C.
(§4) Die Dauer der jeweiligen Stressphasen richtete sich hauptsächlich nach dem Zustand der gestressten Kontrollpflanzen. Sie wurde (durch Wiederbewässerung und Transfer in ein Gewächshaus mit guten Wachstumsbedingungen) beendet, sobald irreversible Schäden an den gestressten Kontrollpflanzen zu beobachten waren.
(§5) Nach Beendigung der Stressphase folgte eine ca. 4-7 tägige Erholungsphase, während der die Pflanzen abermals unter guten Wachstumsbedingungen im Gewächshaus gehalten wurden. Die Dauer der Erholungsphase richtete sich hauptsächlich danach, wann die Versuchspflanzen einen Zustand erreicht hatten, der eine visuelle Bonitur potenzieller Effekte ermöglichte, und war daher variabel.
(§6) Wenn dieser Zeitpunkt erreicht war, wurde das Erscheinungsbild der mit Testsubstanzen behandelten Pflanzen im Vergleich zu den gestressten Kontrollpflanzen nach folgenden Kategorien erfasst:
(§7) Um auszuschliessen, dass die beobachteten Effekte von der ggf. fungiziden oder insektiziden Wirkung der Testverbindungen beeinflusst wurden, wurde zudem darauf geachtet, dass die Versuche ohne Pilzinfektion oder Insektenbefall abliefen.
(§8) In jedem Versuch wurden pro Kultur und Dosierung Pflanzen in 3 Töpfen behandelt und separat ausgewertet. Die in den unten stehenden Tabellen A-1 bis A-3 angegebenen Werte für die erhaltenen Effekte stellen Mittelwerte aus den erhaltenen Bonituren dar.
(§9) Wirkungen ausgewählter Verbindungen der allgemeinen Formel (I) unter Trockenstress: Tabelle A-1

Brassica napus = assay: as above; design: key: 0: kein Effekt; +: leicht positiver Effekt; ++: deutlich positiver Effekt; +++: stark positiver Effekt; details: Trockenstress, Dosierung 250 g/ha, 600 l/ha water, mean rating of 3 pots
Source text: as §1, §2, §3, §4, §5, §6, §7, §8, §9

Triticum aestivum = assay: as above; design: key: 0: kein Effekt; +: leicht positiver Effekt; ++: deutlich positiver Effekt; +++: stark positiver Effekt; details: Trockenstress, 600 l/ha water, mean rating of 3 pots
Source text: as §1, §2, §3, §4, §5, §6, §7, §8, §9

Q: With `CC(C=CC1(O)C(C)=CC(=O)CC1(C)C)=CC(=O)O` (stereo not shown) [Abscisinsäure] as the molecule, how does the “ABI1 Inhibition” value [1] read?
A: ++++ (Inhibition ≥ 90 %)

Q: Which results are given for `CCn1c(SCc2ccc(C#N)cc2)nnc1-c1ccc(Cl)cc1` [B6-63, 3-(4-Chlorphenyl)-4-ethyl-5-[(4-cyanobenzyl)-sulfanyl]-4H-1,2,4-triazol]?
A: Effekt (ZEAMX) (Zea mays; Dosierung 250 g/ha): +++; Effekt (BRSNS) (Brassica napus): +++

Q: How did the “Effekt (ZEAMX)” value (Zea mays; Dosierung 25 g/ha) turn out when `Fc1ccc(CSc2nnc(-c3ccc(Cl)cc3)n2C2CC2)cc1` [D6-13, 3-(4-Chlorphenyl)-4-cyclopropyl-5-[(4-fluorbenzyl)-sulfanyl]-4H-1,2,4-triazol] was run?
A: +++

Q: And the “Effekt (TRZAS)” value (Triticum aestivum; Dosierung 25 g/ha)?
A: ++

Q: With `O=C(CSc1nnc(-c2ccc(Cl)cc2)n1C1CC1)Nc1ccccc1Cl` [D6-726] as the molecule, how does the “Effekt (ZEAMX)” value (Zea mays; Dosierung 250 g/ha) read?
A: +++

Q: And the “Effekt (TRZAS)” value (Triticum aestivum; Dosierung 250 g/ha)?
A: ++
